Source: patent US20050014952A1, “Novel thiazoline derivatives as selective androgen receptor modulators (SARMS)” (priority 2003, published 2005)

Key:
androgen receptor [1] = molecular target: T1, androgen receptor (Rattus norvegicus, UniProt P15207); test: Androgen Receptor Filtration Binding Assay ([3H] R1881 tracer); details: @ 1 μM test compound; negative values indicate no antagonist activity; cmpd 4: two separate synthesis batches; cmpds 5 and 7: average of 2
T1 construct: 5 pmol androgen receptor LBD (Panvera); purchased Panvera
T1 sequence (P15207 651-882 limits assumed): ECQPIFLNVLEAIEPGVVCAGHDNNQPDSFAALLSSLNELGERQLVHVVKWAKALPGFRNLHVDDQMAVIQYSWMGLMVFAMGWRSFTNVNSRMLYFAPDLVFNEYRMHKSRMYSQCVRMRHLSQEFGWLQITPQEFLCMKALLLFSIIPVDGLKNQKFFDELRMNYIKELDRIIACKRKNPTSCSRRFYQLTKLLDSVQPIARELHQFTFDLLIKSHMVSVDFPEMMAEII

androgen receptor [2] = molecular target: T1, androgen receptor; test: as above; details: Androgen Receptor Binding Results
Method: In Vitro Assay—Androgen Receptor Filtration Binding Assay
The assay was run on a 96 well plate with each well filled with total reaction volume 150 μL, of a solution containing 5 pmol androgen receptor LBD (Panvera) or 30 μL of freshly prepared rat cytosol, 0.5 nM [^3H] R1881 tracer (NEN), 1.5 μL (10 μM) test compound or vehicle (diluted in 30% DMSO, final concentration of DMSO 0.75%) and […] of TED buffer. (TED buffer contains 10 mM Tris.HCl pH 7.4, 1 mM sodium molybdate (60 mg/250 mL), 1.5 mM EDTA, 1 mM DTT and 10% (v/v) glycerol.)
On day one, the solution containing receptor, tracer and TED buffer was distributed onto a 96 well plate. Diluted test compound or control vehicle was then added to individual wells and the plate incubated at 4° C. overnight.
On day two, to each well was then added 20 μL human γ-globulin (ICN 823102), prepared at 25 mg/ml in TE pH 8.0, and 55 μL 40% polyethylene glycol 8000 (J T Baker U222-08), prepared in TE pH 8.0. The plate was incubated at 4° C. for 60 minutes. During incubation, the harvester was rinsed with 10% PEG 8000, prepared in TE pH 8.0 and the GF/C Unifilter-96 prewet with 10% PEG. The binding reaction was filtered, the retentate was washed three times with 10% PEG and dried under vacuum for about four minutes, then dried at 50° C. for 5 min and then bottom sealed. 25 μL of Microscint-20 (Packard) was added to the filter wells and top sealed. The plate wells were then counted on a TopCount (Packard).
Selected compounds of the present invention were tested for binding to the androgen receptor according to the procedure described above with results as listed in Table 2. Negative number(s) indicate that there is no antagonist activity for the test compound. The compound may however have agonist activity, which was not tested for.

| inhibition at 1 µM (androgen receptor [1]) | SMILES | inhibition at 10 µM (androgen receptor [2]; @ 10 μM test compound) | IC50 (androgen receptor [2]) |
| --- | --- | --- | --- |
| -6.3% | O=C(Nc1ccc(S(=O)(=O)C(F)(F)F)cc1)C1CSC(c2ccc(F)cc2)=N1 (stereo not drawn) [Cmpd #28, 2-(4-fluoro-phenyl)-4,5-dihydro-thiazole-4-carboxylic Acid (4-trifluoromethanesulfonyl-phenyl)-amide] | – | – |
| 1.5% | O=C(Nc1ccc(F)c(C(F)(F)F)c1)C1CSC(c2ccc(Cl)cc2)=N1 (stereo not drawn) [Cmpd #14, 2-(4-chloro-phenyl)-4,5-dihydro-thiazole-4-carboxylic acid (4-fluoro-3-trifluoromethyl-phenyl)-amide] | – | – |
| -26% | N#Cc1ccc(NC(=O)C2CSC(c3ccc(F)cc3)=N2)cc1 (stereo not drawn) [Cmpd #2, 2-(4-fluoro-phenyl)-4,5-dihydro-thiazole-4-carboxylic Acid (4-cyano-phenyl)-amide] | – | – |
| 29% | CC1(C)SC(c2ccc(F)cc2)=NC1C(=O)Nc1ccc(Cl)c(C(F)(F)F)c1 (stereo not drawn) [Cmpd #21, 2-(4-fluoro-phenyl)-5,5-dimethyl-4,5-dihydro-thiazole-4-carboxylic Acid (4-chloro-3-trifluoromethyl-phenyl)-amide] | – | – |
| -19% | O=C(Nc1ccc(F)c(C(F)(F)F)c1)C1CSC(c2cccc(F)c2)=N1 (stereo not drawn) [Cmpd #18, 2-(3-fluoro-phenyl)-4,5-dihydro-thiazole-4-carboxylic Acid (4-fluoro-3-trifluoromethyl-phenyl)-amide] | – | – |
| 25% | O=C(Nc1ccc(S(=O)(=O)C(F)(F)F)cc1)C1CSC(c2ccc(Cl)cc2)=N1 (stereo not drawn) [Cmpd #29, 2-(4-chloro-phenyl)-4,5-dihydro-thiazole-4-carboxylic Acid (4-trifluoromethanesulfonyl-phenyl)-amide] | – | – |
| 0% | CC1(C)SC(c2ccc(Cl)cc2)=NC1C(=O)Nc1ccc(Cl)c(C(F)(F)F)c1 (stereo not drawn) [Cmpd #22, 2-(4-chloro-phenyl)-5,5-dimethyl-4,5-dihydro-thiazole-4-carboxylic Acid (4-chloro-3-trifluoromethyl-phenyl)-amide] | – | – |
| 30.5% | O=C(Nc1ccc(Cl)c(C(F)(F)F)c1)C1CSC(c2ccc(Cl)cc2)=N1 (stereo not drawn) [Cmpd #11, 2-(4-chloro-phenyl)-4,5-dihydro-thiazole-4-carboxylic acid (4-chloro-3-trifluoromethyl-phenyl)-amide] | – | 3.5 µM |
| 12.3% | O=C(Nc1ccc(Cl)c(C(F)(F)F)c1)C1CSC(c2ccc(F)cc2)=N1 (stereo not drawn) [compound 5, 2-(4-fluoro-phenyl)-4,5-dihydro-thiazole-4-carboxylic Acid (4-chloro-3-trifluoromethyl-phenyl)-amide] | – | – |
| -8% | O=C(Nc1cccc(C(F)(F)F)c1F)C1CSC(c2ccc(F)cc2)=N1 (stereo not drawn) [Cmpd #25, 2-(4-fluoro-phenyl)-4,5-dihydro-thiazole-4-carboxylic Acid (2-fluoro-3-trifluoromethyl-phenyl)-amide] | – | – |
| 0.74% | O=C(Nc1cccc(C(F)(F)F)c1F)C1CSC(c2ccc(Cl)cc2)=N1 (stereo not drawn) [Cmpd #24, 2-(4-chloro-phenyl)-4,5-dihydro-thiazole-4-carboxylic Acid (2-fluoro-3-trifluoromethyl-phenyl)-amide] | – | – |
| 8.5% | O=C(Nc1cccc(C(F)(F)F)c1F)C1CSC(c2cccc(Cl)c2)=N1 (stereo not drawn) [Cmpd #32, 2-(3-chloro-phenyl)-4,5-dihydro-thiazole4-carboxylic Acid (2-fluoro-3-trifluoromethyl-phenyl)-amide] | – | – |
| 12% | O=C(Nc1ccc(Cl)cc1)C1CSC(c2ccc(Cl)cc2)=N1 (stereo not drawn) [Cmpd #16, 2-(4-chloro-phenyl)-4,5-dihydro-thiazole-4-carboxylic Acid (4-chloro-phenyl)-amide] | – | – |
| 15% | O=C(Nc1ccc(Cl)c(C(F)(F)F)c1)C1CSC(c2cccc(Cl)c2)=N1 (stereo not drawn) [Cmpd #26, 2-(3-chloro-phenyl)-4,5-dihydro-thiazole-4-carboxylic Acid (4-chloro-3-trifluoromethyl-phenyl)-amide] | – | – |
| -24.2% | O=C(Nc1ccc(F)c(C(F)(F)F)c1)C1CSC(c2ccc(F)cc2)=N1 (stereo not drawn) [Cmpd #7, 2-(4-fluoro-phenyl)-4,5-dihydro-thiazole-4-carboxylic Acid (4-fluoro-3-trifluoromethyl-phenyl)-amide] | – | – |
| -34% | O=C(Nc1ccc(Cl)c(C(F)(F)F)c1)C1CSC(c2cccc(F)c2)=N1 (stereo not drawn) [Cmpd #17, 2-(3-fluoro-phenyl)-4,5-dihydro-thiazole4-carboxylic Acid (4-chloro-3-trifluoromethyl-phenyl)-amide] | – | – |
| 10% | O=C(Nc1ccc(S(=O)(=O)C(F)(F)F)cc1)C1CSC(c2cccc(Cl)c2)=N1 (stereo not drawn) [Cmpd #31, 2-(3-chloro-phenyl)-4,5-dihydro-thiazole-4-carboxylic Acid (4-trifluoromethanesulfonyl-phenyl)-amide] | – | – |

| SMILES | inhibition at 1 µM (androgen receptor [1]) | inhibition at 10 µM (androgen receptor [2]; @ 10 μM test compound) | IC50 (androgen receptor [2]) |
| --- | --- | --- | --- |
| CC1(C)SC(c2ccc(F)cc2)=NC1C(=O)Nc1ccc(C#N)c(C(F)(F)F)c1 (stereo not drawn) [Cmpd #19, 2-(4-fluoro-phenyl)-5,5-dimethyl-4,5-dihydro-thiazole-4-carboxylic Acid (4-cyano-3-trifluoromethyl-phenyl)-amide] | -1% | – | – |
| O=C(Nc1ccc([N+](=O)[O-])c(C(F)(F)F)c1)C1CSC(c2cccc(Cl)c2)=N1 (stereo not drawn) [Cmpd #30, 2-(3-chloro-phenyl)-4,5-dihydro-thiazole-4-carboxylic Acid (4-nitro-3-trifluoromethyl-phenyl)-amide] | 7% | – | – |
| CC1(C)SC(c2ccc(F)cc2)=NC1C(=O)Nc1ccc([N+](=O)[O-])c(C(F)(F)F)c1 (stereo not drawn) [Cmpd #20, 2-(4-fluoro-phenyl)-5,5-dimethyl-4,5-dihydro-thiazole-4-carboxylic Acid (4-nitro-3-trifluoromethyl-phenyl)-amide] | 29% | – | – |
| N#Cc1ccc(NC(=O)C2CSC(c3ccc(F)cc3)=N2)cc1C(F)(F)F (stereo not drawn) [Cmpd #1, 2-(4-fluoro-phenyl)-4,5-dihydro-thiazole-4-carboxylic Acid (3-trifluoromethyl-4-cyano-phenyl)-amide] | 28.5% | 50% | – |
| CC1(C(=O)Nc2ccc(Cl)c(C(F)(F)F)c2)CSC(c2ccc(F)cc2)=N1 (stereo not drawn) [compound 12] | 52% | – | > 10 µM |
| N#Cc1ccc(NC(=O)C2CSC(c3cccc(Cl)c3)=N2)cc1C(F)(F)F (stereo not drawn) [Cmpd #27, 2-(3-chloro-phenyl)-4,5-dihydro-thiazole-4-carboxylic Acid (4-cyano-3-trifluoromethyl-phenyl)-amide] | 34% | – | – |
| CC1(C)SC(c2ccc(Cl)cc2)=NC1C(=O)Nc1cc(F)c(C#N)cc1F (stereo not drawn) [Cmpd #23, 2-(4-chloro-phenyl)-5,5-dimethyl-4,5-dihydro-thiazole-4-carboxylic Acid (4-cyano-2,5-difluoro-phenyl)-amide] | -5% | – | – |
| N#Cc1ccc(NC(=O)C2CSC(c3cccc(F)c3)=N2)cc1C(F)(F)F (stereo not drawn) [Cmpd #3, 2-(3-fluoro-phenyl)-4,5-dihydro-thiazole-4-carboxylic Acid (4-cyano-3-trifluoromethyl-phenyl)-amide] | 8.1% | – | – |
| N#Cc1ccc(NC(=O)C2CSC(c3ccc(Cl)cc3)=N2)cc1C(F)(F)F (stereo not drawn) [Cmpd #9, 2-(4-chloro-phenyl)-4,5-dihydro-thiazole-4-carboxylic acid (4-cyano-3-trifluoromethyl-phenyl)-amide] | 41.5% | – | – |
| CC1(C(=O)Nc2ccc(C#N)c(C(F)(F)F)c2)CSC(c2ccc(F)cc2)=N1 (stereo not drawn) [Cmpd #33, 2-(4-fluoro-phenyl)-4-methyl-4,5-dihydro-thiazole-4-carboxylic Acid (4cyano-3-trifluoromethyl-phenyl)-amide] | 27% | – | – |
| O=C(Nc1ccc([N+](=O)[O-])c(C(F)(F)F)c1)C1CSC(c2ccc(Cl)cc2)=N1 (stereo not drawn) [Cmpd #10, 2-(4-chloro-phenyl)-4,5-dihydro-thiazole-4-carboxylic acid (4-nitro-3-trifluoromethyl-phenyl)-amide] | 60.5% | – | – |
| CC1(C(=O)Nc2ccc([N+](=O)[O-])c(C(F)(F)F)c2)CSC(c2ccc(F)cc2)=N1 (stereo not drawn) [compound 13] | 29% | – | > 10 µM |
